Experimental data: patent US20150087722A1, “TREATMENT FOR BREAST TUMOR CELL METASTASIS” (China Medical University, priority 2012, published 2015)
Read-outs that look alike come from different tables or passages of the source.

Legend:
Type in all cases: cell-based, human
[1] = system: breast tumor cells MDA-MB-231; test: MTT cell viability assay; details: for IC50: Homo sapiens; for cell viability: FIG. 13
Description: The breast tumor cells (MDA-MB-231, MDA-MB-435, MDA-MB-453, MDA-MB-468 and MCF-7) were commercially obtained from the bioresource collection and research center (BCRC), and were cultured in a 10% FBS-DMEM culture medium (i.e., a DMEM culture medium including 10% fetal bovine serum (FBS)). The human breast cell MCF-10A was cultured in a 5% FBS-DMEM culture medium (including F12, insulin, hydrocortisol and epidermal growth factor). An environment of 5% CO2 was kept in the incubator at a constant temperature of 37° C. When a certain number of cells were generated in culture, the culture medium was removed after being centrifuged for 10 min at a rate of 900 rpm. The culture medium was replaced in 24 h before the experiment, and the number of cells was counted by a hemocytometer.
The cell viability was determined by a method of […] (MTT assay). The test method for assaying cell viability refers to steps provided by Parada-Turska et al.
The breast tumor cells MDA-MB-231 were inoculated in a 24-well plate (2.5×10^5 cells/well), and the next day after cells were adhered to the wall of the plate, the cells were washed with PBS. 1% FBS-DMEM culture medium was then added so as to synchronize cells. The next day compound II having different concentrations were added into the wells, and the cells were subsequently cultured in an atmosphere of 5% CO2 at 37° C. for 24 h. The cells were washed with PBS once, and 400 μl MTT agent was added in each well so as to react for 4 h. Then 400 μl 10% SDS was added in each well so as to react for 12 h. 200 μl supernatant was taken from the well and then added into a 96-well microplate, so as to measure the absorbance at 570 nm.
FIG. 13 separately illustrates the viabilities of cells treated with the compound II in different doses, and whether the viabilities of cells were recovered when the cells were treated with both the compound II and the antioxidant NAC, so as to illustrate the effect of increased reactive oxygen species caused by the compound II on the tumor cell proliferation. The test method for measuring the cell viability refers to steps described in test example 2-1. The breast tumor cells MDA-MD-231 were treated with the compound II of 0, 2, 5, 7.5, 10 and 15 μM for 24 h, and then the effect of the compound II on viability of breast tumor cells MDA-MD-231 was observed. FIG. 13 is a quantitative diagram, the data result was represented by mean±SD values, where n=3.

[2] = system: EMT-related proteins in breast tumor cells MCF-7; test: western blotting of EMT-related proteins; details: MCF-7, 10, 15 and 20 μM, 24 h, with dose increasing
Description: (§1) FIG. 2A illustrates the expression results of EMT-related proteins in breast tumor cells MDA-MB-231 after the breast tumor cells MDA-MB-231 have been respectively cultured under compound II having concentrations of 0, 0.5, 1 and 2 μM for 24 h; and FIG. 2B illustrates the expression results of EMT-related proteins in breast tumor cells MCF-7 after the breast tumor cells MCF-7 have been respectively cultured under the compound II having concentrations of 0, 10, 15 and 20 μM for 24 h. FIG. 3A illustrates the western blotting results of EMT-related proteins in the breast tumor cells MDA-MB-468, where the breast tumor cells MDA-MB-468 are treated with the compound I having concentrations of 0, 0.5, 1 and 2 μM for 24 h, and FIG. 3B illustrates the western blotting results of EMT-related proteins in the breast tumor cells MDA-MB-435, where the breast tumor cells MDA-MB-435 are treated with the compound I having concentrations of 0, 2.5, 5 and 7.5 μM for 24 h. FIG. 4 illustrates the western blotting results of EMT-related proteins in the human normal breast cells MCF-10A stimulated by TNF-α/TGF-β, where the human normal breast cells MCF-10A are treated with the compound I having concentrations of 2 μM for 24 h. The human normal breast cells stimulated by TNF-α/TGF-β can cause TNF-α/TGF-β-induced EMT in the human normal breast cells MCF-10A. The steps of western blotting include: washing cells with PBS twice at 4° C.; adding a lysis buffer and rubbing the cells by a rubbr policeman so as to lyse cells; putting the lysed cell solution into a 1.5 ml microcentrifuge tube and shaking for 1 min; centrifuging at 12000 rpm for 10 min and taking the supernatant; measuring concentration of the protein through a Bio-Rad protein assay kit; and storing the remained extracted protein solution at −70° C.; taking 100 μg protein solution and adding a SDS/protein loading buffer having the same volume, where the SDS/protein loading buffer has a concentration two times larger than the protein solution; boiling the mixture of the protein solution and the SDS/protein loading buffer at 100° C. for 10 min; cooling and loading the protein samples in each hole of gel; adjusting the voltage to 100 V and running the protein samples on the gel until the tracking dye in the sample buffer reaches the bottom of the gel; and subsequently transferring the protein from the gel using electrophoresis. A PVDF membrane was soaked in methanol until the paper was totally wet. The paper was arranged in a transfer tank placed in a 4° C. ice box, and the protein transfer was performed at a current of […] for 4 h. The PVDF membrane was then taken out, placed in a PBS blocking solution including 1% BSA and shaken for 2 h. Then the PVDF membrane was placed in a blocking solution including a primary antibody and slowly shaken at 100 rpm for 1 h at the room temperature. Subsequently the PVDF membrane was washed with PBST for third times, each time for 3-5 min. According to different […] and different dilution ratios, the PVDF membrane was shaken for 2 h on a horizontal rotator and then washed with PBST for three times. Then luminescence image equipment was used, where the PVDF was placed onto a black metal plate by a plastic pincer and the face including protein was upwards, a 1:1 mixed Chemiluminesent Substrate was added into the membrane and the exposure time depends on the fluorescence intensity of antibodies.

[3] = system: EMT-related proteins in breast tumor cells MDA-MB-468; test: western blotting of EMT-related proteins; details: MDA-MB-468, 0.5, 1 and 2 μM, 24 h, with dose increasing
Description: as §1

[4] = system: EMT-related proteins in breast tumor cells MDA-MB-435; test: western blotting of EMT-related proteins; details: MDA-MB-435, 2.5, 5 and 7.5 μM, 24 h, with dose increasing
Description: as §1

Row | IC50 ([1]; MDA-MB-231, 0-40 μM for 24 h, FIG. 1A, read-out: IC50 for inhibiting the MDA-MB-231) [µM] | IC50 ([1]; viability, MDA-MB-231 cell strain, Table 1, read-out: IC50) [µM] | SMILES | cell viability ([1]; MDA-MB-231, 2-15 μM, 24 h) | cell viability ([1]; MDA-MB-231, with antioxidant NAC) | expression amount of E-cadherin, p-β-catenin and occludin [2] | expression amount of proteins facilitating tumor cell proliferation (Twist, Snail, vimentin, β-catenin) [2] | expression amount of E-cadherin and occludin [3] | expression amount of proteins facilitating tumor cell proliferation (Snail, vimentin, β-catenin) [3] | expression amount of E-cadherin and occludin [4] | expression amount of proteins facilitating tumor cell proliferation (Snail, vimentin, β-catenin) [4]
1 | ~6.5 | 7.51 | COC1=C(OC)C(=O)C(C)=C(C)C1=O [compound II] | significantly decreased | not influenced | increased | decreased |  |  |  | 
2 |  |  | COC1=C(OC)C(=O)C(C)=CC1=O [compound I] |  |  |  |  | increased | decreased | increased | decreased
